Test results as given in ChEMBL document CHEMBL3638995, “Disubstituted 3,4-diamino-3-cyclobutene-1,2-dione compounds for use in the treatment of chemokine-mediated pathologies” (2015).

Key:
[1] = target: T1, C-X-C chemokine receptor type 2 (Homo sapiens, UniProt P25025); test: (§1) Assay Drug Dev Technol. 2007 February; 5(1); 137-44).; format: cell-based
T1 sequence (P25025 whole entry): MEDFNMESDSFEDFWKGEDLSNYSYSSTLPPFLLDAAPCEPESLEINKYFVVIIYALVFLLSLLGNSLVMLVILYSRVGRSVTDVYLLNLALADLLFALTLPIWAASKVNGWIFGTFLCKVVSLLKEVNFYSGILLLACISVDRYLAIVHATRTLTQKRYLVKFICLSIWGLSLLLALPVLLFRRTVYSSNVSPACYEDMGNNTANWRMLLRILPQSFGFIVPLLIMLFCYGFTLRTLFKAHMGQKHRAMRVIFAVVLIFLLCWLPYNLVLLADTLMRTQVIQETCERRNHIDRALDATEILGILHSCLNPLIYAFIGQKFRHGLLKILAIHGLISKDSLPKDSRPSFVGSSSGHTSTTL

[2] = target: T2, C-X-C chemokine receptor type 1 (Homo sapiens, UniProt P25024); test: as §1; format: cell-based
T2 sequence (P25024 whole entry): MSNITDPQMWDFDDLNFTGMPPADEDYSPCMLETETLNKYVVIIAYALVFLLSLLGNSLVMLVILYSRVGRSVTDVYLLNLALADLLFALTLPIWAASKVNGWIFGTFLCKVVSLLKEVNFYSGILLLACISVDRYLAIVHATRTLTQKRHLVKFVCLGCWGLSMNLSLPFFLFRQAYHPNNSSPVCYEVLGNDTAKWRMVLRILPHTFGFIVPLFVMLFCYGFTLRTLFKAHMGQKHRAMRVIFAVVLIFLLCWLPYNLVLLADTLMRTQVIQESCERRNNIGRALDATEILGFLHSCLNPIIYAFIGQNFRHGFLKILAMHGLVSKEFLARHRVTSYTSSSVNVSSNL

SMILES	IC50 [1]	IC50 [2]
Cc1ccc([C@H](Nc2c(Nc3csc(C(=O)N(C)C)c3O)c(=O)c2=O)C2(C)COC2)o1	0.096 µM	3.9 µM
Cc1ccc(C(Nc2c(Nc3cccc(C(=O)N(C)C)c3O)c(=O)c2=O)C2(C)COC2)s1 (stereo unspecified)	0.146 µM	3.03 µM
Cc1ccc([C@H](Nc2c(Nc3cccc(C(=O)N(C)C)c3O)c(=O)c2=O)C2(C)COC2)o1	0.072 µM	0.312 µM
